Results from patent EP2058306A1, “Heteroaryl-substituted 2-pyridinyl-methylamine derivatives” (SCHWARZ PHARMA AG, priority 2007, dated 2009).
Like-named read-outs stand apart in the source and are kept apart here.

Assays:
5-HT1A = molecular target: T1, 5-HT1A (Sus scrofa, UniProt A0A4X1UTF5); assay: radioligand binding assay, serotonin 5-HT1A receptor, [3H]WAY 100635
T1 construct: membrane preparations from porcine cortex; from tissue; host or cells: porcine cortex
T1 sequence (A0A4X1UTF5 1-422): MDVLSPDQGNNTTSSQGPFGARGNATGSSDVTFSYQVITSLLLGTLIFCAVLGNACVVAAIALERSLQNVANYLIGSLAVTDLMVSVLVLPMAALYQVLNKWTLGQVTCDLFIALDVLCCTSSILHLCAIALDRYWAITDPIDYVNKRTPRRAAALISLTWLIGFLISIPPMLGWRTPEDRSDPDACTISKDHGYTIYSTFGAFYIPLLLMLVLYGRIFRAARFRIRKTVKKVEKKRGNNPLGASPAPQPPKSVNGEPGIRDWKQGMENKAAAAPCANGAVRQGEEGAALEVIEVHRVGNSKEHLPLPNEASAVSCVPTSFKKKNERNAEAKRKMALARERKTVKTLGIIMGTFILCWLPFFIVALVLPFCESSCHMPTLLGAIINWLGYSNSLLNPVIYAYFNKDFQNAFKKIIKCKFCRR
Procedure: (§1) The investigation of receptor binding to the serotonin and adrenergic receptors was done according to a published procedure (Heindl, C. et al., Tetrahedron: Asymmetry (2003), 14, 3141-3152). In detail, for the determination of the binding properties to serotonin receptors membrane preparations from porcine cortex was incubated with the 5-HT1A selective radioligand [^3H]WAY 100635 or with the 5-HT2 selective compound [^3H]ketanserin. The measurement of alpha-1 and alpha-2 receptor binding was achieved when utilizing porcine cortical membranes and the selective radioligands [^3H]prazosin (for alpha-1) and [^3H]RX821002 in an assay similar to that described above.
(§2) The results of the binding experiments are summarized in Table 1 as mean values of two to five individual experiments each done in triplicate and expressed as Ki values in nM.

5-HT2 = molecular target: T2, 5-HT2 (Sus scrofa, UniProt P50129); assay: radioligand binding assay, serotonin 5-HT2 receptor, [3H]ketanserin; design: species or system porcine
T2 construct: membrane preparations from porcine cortex; from tissue; host or cells: porcine cortex
T2 sequence (P50129 whole entry): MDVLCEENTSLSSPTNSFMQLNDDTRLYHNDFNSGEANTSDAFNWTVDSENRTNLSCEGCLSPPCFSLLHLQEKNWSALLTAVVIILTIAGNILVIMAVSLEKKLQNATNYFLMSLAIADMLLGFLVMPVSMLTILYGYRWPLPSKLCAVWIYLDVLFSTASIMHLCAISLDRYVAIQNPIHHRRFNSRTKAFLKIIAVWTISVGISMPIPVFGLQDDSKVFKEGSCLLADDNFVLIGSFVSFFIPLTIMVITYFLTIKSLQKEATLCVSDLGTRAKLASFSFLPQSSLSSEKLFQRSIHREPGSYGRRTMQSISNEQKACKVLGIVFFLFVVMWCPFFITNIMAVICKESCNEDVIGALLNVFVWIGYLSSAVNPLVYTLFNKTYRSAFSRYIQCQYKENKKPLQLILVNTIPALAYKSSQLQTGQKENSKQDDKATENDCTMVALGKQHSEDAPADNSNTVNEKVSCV

dopamine D1 receptor = molecular target: T3, dopamine D1 receptor (Sus scrofa, UniProt P50130); assay: radioligand binding assay, dopamine D1 receptor, [3H]SCH 23390
T3 construct: native membrane preparations from porcine striatum; from tissue; host or cells: porcine striatum
T3 sequence (P50130 whole entry): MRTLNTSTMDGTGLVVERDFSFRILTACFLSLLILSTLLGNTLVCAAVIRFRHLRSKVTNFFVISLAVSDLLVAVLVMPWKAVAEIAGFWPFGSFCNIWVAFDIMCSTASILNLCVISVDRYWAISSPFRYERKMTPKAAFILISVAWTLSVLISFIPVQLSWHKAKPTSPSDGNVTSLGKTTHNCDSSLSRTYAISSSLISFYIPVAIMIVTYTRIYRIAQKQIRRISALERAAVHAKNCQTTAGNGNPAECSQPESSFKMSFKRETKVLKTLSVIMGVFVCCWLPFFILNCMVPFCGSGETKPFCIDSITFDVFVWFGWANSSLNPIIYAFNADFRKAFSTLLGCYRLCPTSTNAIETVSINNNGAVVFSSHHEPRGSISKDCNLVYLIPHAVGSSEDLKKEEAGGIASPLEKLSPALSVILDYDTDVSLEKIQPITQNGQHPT
From the text: (§3) Biological activity of the compounds has been determined in radioligand binding assays. These experiments have been done according to methods which are described in literature (Hübner, H. et al., J. Med. Chem. (2000), 43, 7562). For the determination of binding affinity to the receptors of the dopamine D2 family membranes were established carrying the human D2long, D2short, D3 or D4.4 receptor subtype stably expressed in Chinese hamster ovary cell lines. In principle, the binding experiments started when incubating an appropriate amount of membrane with the radioligand [^3H]spiperone and the particular test compounds used in a wide range of different concentrations from subnanomolar up to micromolar ones. In the same way, binding affinities of the test compounds to the dopamine D1 receptor were determined when using native membrane preparations from porcine striatum and the D1 selective radioligand [^3H]SCH 23390.
as §2

human D2long, D2short = human D2long, D2short (Homo sapiens, UniProt P14416); assay: biochemical; type: binding
Sequence of human D2long, D2short (P14416 whole entry): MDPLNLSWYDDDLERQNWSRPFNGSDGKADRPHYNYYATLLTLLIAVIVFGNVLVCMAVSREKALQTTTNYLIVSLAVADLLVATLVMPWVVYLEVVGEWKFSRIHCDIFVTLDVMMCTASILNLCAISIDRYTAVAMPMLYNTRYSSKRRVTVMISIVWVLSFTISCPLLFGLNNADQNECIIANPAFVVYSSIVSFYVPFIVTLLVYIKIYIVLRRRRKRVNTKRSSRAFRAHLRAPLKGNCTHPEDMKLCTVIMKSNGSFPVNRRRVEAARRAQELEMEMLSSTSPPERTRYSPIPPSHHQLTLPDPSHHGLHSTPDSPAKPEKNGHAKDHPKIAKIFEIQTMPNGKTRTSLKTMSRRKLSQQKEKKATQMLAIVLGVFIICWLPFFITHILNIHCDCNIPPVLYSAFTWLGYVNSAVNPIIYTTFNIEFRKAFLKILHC
Procedure: as §3, with “These” for “Biological activity of the compounds has been determined in radioligand binding assays. These”, “ones.” for “ones. In the same way, binding affinities of the test compounds to the dopamine D1 receptor were determined when using native membrane preparations from porcine striatum and the D1 selective radioligand [^3H]SCH 23390.”

human D3 = human D3 (Homo sapiens, UniProt P35462); assay: radioligand binding assay, dopamine D3 receptor, [3H]spiperone
Sequence of human D3 (P35462 whole entry): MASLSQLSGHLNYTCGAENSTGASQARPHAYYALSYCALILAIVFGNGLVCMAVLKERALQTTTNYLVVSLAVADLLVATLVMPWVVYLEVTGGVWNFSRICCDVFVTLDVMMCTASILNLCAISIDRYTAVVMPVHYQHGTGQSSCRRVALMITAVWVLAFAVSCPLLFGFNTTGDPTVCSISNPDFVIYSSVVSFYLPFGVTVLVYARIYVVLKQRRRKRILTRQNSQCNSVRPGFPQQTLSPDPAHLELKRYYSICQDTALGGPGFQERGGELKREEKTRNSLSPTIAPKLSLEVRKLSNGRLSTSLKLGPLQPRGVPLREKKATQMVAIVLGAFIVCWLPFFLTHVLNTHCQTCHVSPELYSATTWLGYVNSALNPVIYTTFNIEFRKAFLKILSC
Procedure: as §3, with “These” for “Biological activity of the compounds has been determined in radioligand binding assays. These”, “ones.” for “ones. In the same way, binding affinities of the test compounds to the dopamine D1 receptor were determined when using native membrane preparations from porcine striatum and the D1 selective radioligand [^3H]SCH 23390.”

human D4.4 = molecular target: T4, human D4.4 (Homo sapiens, UniProt P21917); assay: radioligand binding assay, dopamine D4.4 receptor, [3H]spiperone
T4 sequence (P21917 1-419): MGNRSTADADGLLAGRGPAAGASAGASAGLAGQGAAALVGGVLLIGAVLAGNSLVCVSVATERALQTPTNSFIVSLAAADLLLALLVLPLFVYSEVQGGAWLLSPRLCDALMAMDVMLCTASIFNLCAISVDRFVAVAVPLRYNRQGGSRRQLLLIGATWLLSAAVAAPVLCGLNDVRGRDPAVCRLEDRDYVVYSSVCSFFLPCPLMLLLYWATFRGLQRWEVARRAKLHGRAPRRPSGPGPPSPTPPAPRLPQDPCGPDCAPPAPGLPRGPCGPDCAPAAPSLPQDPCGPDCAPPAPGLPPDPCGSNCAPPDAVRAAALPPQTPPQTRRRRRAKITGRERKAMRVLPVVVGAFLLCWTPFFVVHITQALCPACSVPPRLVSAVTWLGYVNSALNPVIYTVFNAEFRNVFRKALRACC
From the text: as §3, §2

alpha-1 = assay: radioligand binding assay, adrenergic alpha-1 receptor, [3H]prazosin; details: porcine cortical membranes, mean of two to five experiments in triplicate, read-out: Ki alpha1
Procedure: as §1, §2

[1] = porcine cortex membranes, mean of two to five experiments in triplicate, read-out: Ki 5-HT1a
[2] = porcine cortex membranes, [3H]ketanserin, mean of two to five experiments in triplicate, read-out: Ki 5-HT2
[3] = porcine striatum membranes, mean of two to five experiments in triplicate, read-out: Ki D1
[4] = CHO cell membranes, [3H]spiperone; mean of two to five experiments in triplicate; read-out: Ki D2
[5] = CHO cell membranes, mean of two to five experiments in triplicate, read-out: Ki D3
[6] = CHO cell membranes, mean of two to five experiments in triplicate, read-out: Ki D4.4

Row | SMILES | Ki (5-HT1A; [1]) [nM] | Ki (5-HT2) [µM] | Ki (5-HT2; [2]) [µM] | Ki (dopamine D1 receptor; [3]) [µM] | Ki (human D2long, D2short; [4]) [µM] | Ki (human D3; [5]) [µM] | Ki (human D4.4; [6]) [µM] | Ki (alpha-1) [µM] | Ki (dopamine D1 receptor; read-out: Ki D1, porcine striatum membranes, mean of two to five experiments in triplicate) [µM] | Ki (human D2long, D2short; read-out: Ki D2; CHO cell membranes, [3H]spiperone; mean of two to five experiments in triplicate) [µM] | Ki (human D3; read-out: Ki D3, CHO cell membranes, mean of two to five experiments in triplicate) [µM] | Ki (human D4.4; read-out: Ki D4.4, CHO cell membranes, mean of two to five experiments in triplicate) [µM] | Ki (5-HT1A; read-out: Ki 5-HT1a, porcine cortex membranes, mean of two to five experiments in triplicate) [nM]
1 | Cc1ccc(CNCC2(F)CCN(C(=O)c3ccc(F)s3)CC2)nc1 [Example E2] | < 50 | > 5 | – | – | – | – | – | – | – | – | – | – | –
2 | Cc1ccc(CNCC2(F)CCN(C(=O)c3cc(Br)c(Br)s3)CC2)nc1 [Example E8, 4,5-Dibromothien-2-yl-[4-fluoro-4-[[(5-methylpyridin-2-ylmethyl)amino]methyl]-piperidin-1-yl]-methanone] | < 50 | – | > 5 | – | – | – | – | – | – | – | – | – | –
3 | CSc1ccc(C(=O)N2CCC(F)(CNCc3ccc(C)cn3)CC2)s1 [Example E12, [4-Fluoro-4-[[(5-methylpyridin-2-ylmethyl)amino]methyl]piperidin-1-yl]-5-mothylthiothien-2-yl-methanone] | < 50 | > 5 | – | > 5 | > 5 | > 5 | 0.501 to 5 | 0.501 to 5 | – | – | – | – | –
4 | Cc1ccc(CNCC2(F)CCN(C(=O)c3ccc(-c4ccccc4)s3)CC2)nc1 [Example E13, [4-Fluoro-4-[[(5-methylpyridin-2-ylmethyl)amino]methyl]piperidin-1-yl]-5-phenylthien-2-yl-mathanone] | 50 to 500 | 0.501 to 5 | – | > 5 | 0.501 to 5 | 0.501 to 5 | > 5 | 0.501 to 5 | – | – | – | – | –
5 | Cc1ccc(CNCC2(F)CCN(C(=O)c3ccc(-c4ccccn4)s3)CC2)nc1 [Example E14, [4-Fluoro-4-[[(5-methylpyridin-2-ylmethyl)amino]methyl]piperidin-1-yl]-5-pyridin-2-ylthien-2-yl-methanone] | 50 to 500 | – | 0.501 to 5 | > 5 | > 5 | > 5 | > 5 | 0.501 to 5 | – | – | – | – | –
6 | Cc1ccc(CNCC2(F)CCN(C(=O)c3ccc(-c4cccs4)s3)CC2)nc1 [Example E15, [2,2']Bithien-5-yl-[4-fluoro-4-[[(5-methylpyridin-2-ylmethyl)amino]methyl]piperidin-1-yl]-methanone] | 50 to 500 | 0.501 to 5 | – | > 5 | > 5 | 0.501 to 5 | > 5 | 0.501 to 5 | – | – | – | – | –
7 | Cc1ccc(CNCC2(F)CCN(C(=O)c3ccc(-c4csc(C)n4)s3)CC2)nc1 [Example E16, [4-Fluoro-4-[[(5-methylpyridin-2-ylmethyl)amino]methyl]piperidin-1-yl]-5-(2-methylthiazol-4-yl)thien-2-yl-methanone] | 50 to 500 | – | > 5 | > 5 | > 5 | 0.501 to 5 | > 5 | 0.501 to 5 | – | – | – | – | –
8 | Cc1ccc(CNCC2(F)CCN(C(=O)c3sccc3-n3cccc3)CC2)nc1 [Example E17, [4-Fluoro-4-[[(5-methylpyridin-2-ylmethyl)amino]methyl]piperidin-1-yl]-3-pyrrol-1-ylthion-2-yl-methanone] | 50 to 500 | > 5 | – | > 5 | > 5 | > 5 | 0.501 to 5 | 0.501 to 5 | – | – | – | – | –
9 | Cc1ccc(CNCC2(F)CCN(C(=O)c3ccsc3Br)CC2)nc1 [Example E19, 2-Bromothien-3-yl-[4-fluoro-4-[[(5-methylpyridin-2-ylmethyl)amino]methyl]piperidin-1-yl]-methanone] | < 50 | – | > 5 | > 5 | > 5 | > 5 | 0.501 to 5 | 0.501 to 5 | – | – | – | – | –
10 | COc1cscc1C(=O)N1CCC(F)(CNCc2ccc(C)cn2)CC1 [Example E20, [4-Fluoro-4-[[(5-mothylpyridin-2-ylmothyl)amino]methyl]piperidin-1-yl]-4-methoxythien-3-yl-methanone] | 50 to 500 | > 5 | – | > 5 | > 5 | > 5 | 0.501 to 5 | > 5 | – | – | – | – | –
11 | COc1c(C(=O)N2CCC(F)(CNCc3ccc(C)cn3)CC2)csc1Cl [Example E21, 5-Chloro-4-methoxythien-3-yl-[4-fluoro-4-[[(5-methylpyridin-2-ylmethyl)amino]methyl]piperidin-1-yl]-methanone] | < 50 | – | > 5 | > 5 | > 5 | > 5 | 0.501 to 5 | 0.501 to 5 | – | – | – | – | –
12 | COc1c(C(=O)N2CCC(F)(CNCc3ccc(C)cn3)CC2)csc1Br [Example E22, 5-Bromo-4-methoxythion-3-yl-[4-fluoro-4-[[(5-methylpyridin-2-ylmethyl)amino]methyl]piperidin-1-yl]-methanone] | < 50 | > 5 | – | > 5 | > 5 | > 5 | 0.501 to 5 | 0.501 to 5 | – | – | – | – | –
13 | Cc1ccc(CNCC2(F)CCN(C(=O)c3cc4ccccc4s3)CC2)nc1 [Example E23, Benzo[b]thien-2-yl-[4-fluoro-4-[[(5-methyl-pyridin-2-ylmethyl)amino]methyl]-piperidin-1-yl]-methanone] | 50 to 500 | – | > 5 | > 5 | > 5 | > 5 | 0.501 to 5 | 0.501 to 5 | – | – | – | – | –
14 | Cc1ccc(CNCC2(F)CCN(C(=O)c3cc(Br)c(Br)o3)CC2)nc1 [Example E32, 4,5-Dibromofuran-2-yl-[4-fluoro-4-[[(5-mothylpyridin-2-ylmethyl)amino]methyl]piperidin-1-yl]-methanone] | < 50 | – | > 5 | – | – | – | – | – | – | – | – | – | –
15 | Cc1ccc(CNCC2(F)CCN(C(=O)c3coc4ccccc34)CC2)nc1 [Example E36] | – | – | – | – | – | – | – | – | > 5 | > 5 | > 5 | 0.501 to 5 | < 50
16 | Cc1ccc(CNCC2(F)CCN(C(=O)c3ccc[nH]3)CC2)nc1 [Example E37, [4-Fluoro-4-[[(5-methylpyridin-2-ylmethyl)amino]methyl]piperidin-1-yl]-pyrrol-2-yl-methanone] | 501 to 5000 | – | > 5 | – | – | – | – | – | – | – | – | – | –
17 | Cc1ccc(CNCC2(F)CCN(C(=O)c3cc[nH]n3)CC2)nc1 [Example E38] | 501 to 5000 | > 5 | – | – | – | – | – | – | – | – | – | – | –
